Experimental data as given in patent US7589177B2, “Nucleic acid molecules encoding cyclotide polypeptides and methods of use” (E.I. du Pont de Nemours & Company, priority 2004, dated 2009).

Legend:
Panagrellus redivivus = assay: Bioactivity of cyclotide 2 against the nematode Panagrellus redivivus (dose-response, % mortality); type: in vivo
Experimental: Panagrellus was grown in basal medium and diluted in sterile water to create a stock solution concentration of 200 nematodes/50 μL (the basal media inoculum). Using a multi-channel pipette, 50 μL of the nematode stock solution was added to each well of plates containing the fractionated crude extract. Tests were performed on duplicate samples. Once the activity was established, the HPLC peaks corresponding to the active wells were purified and dose-response assays were done.
Samples for a dose-response assay were resuspended in 40 μL and 4 wells of 8 μL, 6 μL, 4 μL and 2 μL were prepared in replicates of two. The volume was adjusted with the basal media inoculum to get a final volume of 50 μL and 200 nematodes per well. […] The percent mortality was calculated as ratio of dead nematodes against the total (living and dead) number present in the test wells.

[1] = tested on: Colletotrichum graminaria; assay: Dose-response fungal growth inhibition assay; type: cell-based; conditions: 2500 spores/mL in 1/2 strength PDB, 28° C., scored after 24 and 48 hours
Experimental: (§1) The anti-fungal activity of cyclotide 2 was tested against the crop pathogens Fusarium verticilloides and Colletotrichum graminaria, and the filamentous fungus Neurospora crassa. To conduct the assay, 100 μL of ½ strength potato dextrose broth (PDB) containing a spore suspension of 2500 spores/mL was added to each well in a 96 well microtiter plate containing dried HPLC fractions. The plates were mixed three times in approximately five minute intervals before incubation at 28° C., and were scored after 24 hours and 48 hours for inhibition of fungal growth. Inhibition of fungal growth was defined as little to no spore germination with no detectable hyphae growth.
(§2) The dose-response fungal assays were performed by resuspending the lyophilized cyclotide protein sample in 200 μL of a solution which consisted of fungal spores suspended in ½ strength potato dextrose broth (PDB) at a concentration of 2500 spores/mL. The spores were either from Fusarium verticilloides, Colletotrichum graminaria or Neurospora crassa. This resuspended sample represented a starting stock solution. A 0.5× dilution series was then prepared by removing 100 μL of the starting stock solution and adding it to a well in a 96 well tray containing 100 μL of spore suspension (2500 spores/mL), mixing thoroughly and then transferring 100 μL of the newly diluted cyclotide/spore suspension to a fresh well containing 100 μL of spore suspension etc., until all 12 columns of the row of sample in the 96 well tray were prepared. The final volume of the assay was then 100 μL. The plates were mixed three times in approximately five minute intervals before they were incubated at 28° C. and then were scored after 24 and 48 hours for inhibition of fungal growth. Inhibition of fungal growth was defined as little to no spore germination with no detectable hyphae growth.

Fusarium verticilloides = assay: Dose-response fungal growth inhibition assay; type: cell-based; conditions: 2500 spores/mL in 1/2 strength PDB, 28° C., scored after 24 and 48 hours
Experimental: as §1, §2

Neurospora crassa = assay: Dose-response fungal growth inhibition assay; type: cell-based; conditions: 2500 spores/mL in 1/2 strength PDB, 28° C., scored after 24 and 48 hours
Experimental: as §1, §2

Sclerotinia = Sclerotinia hyphal growth inhibition dose-response assay; type: cell-based, Sclerotinia sclerotiorum; parameters: key: 0: no inhibition of fungal growth; 1: slight inhibition; 2: moderate inhibition; 3: extensive inhibition; 4: total inhibition; conditions: 48 hours
Experimental: To test the activity of cyclotide 2 against Sclerotinia, a Sclerotinia test inoculum was started by inoculating ½ strength PDB liquid with a sterile loop of hyphae from a Sclerotinia culture propagated on a ⅛ strength potato dextrose agar (PDA) plate. This liquid inoculum was held at room temperature (22° C.), without shaking, in the dark for 4 days, to allow sufficient growth of hyphae. The resulting suspension was macerated using a sterile polytron tissue grinder. The sample was then diluted with ½ strength PDB to the point of invisibility to the naked eye (observation under microscopy at 40× indicated the presence of 12-15 hyphal fragments per 50 μL aliquot of inoculum). Then, 50 μL of the inoculum was added to each well of a 96 shallow well bioassay plate.
The cyclotide sample, following fractionation and lyophilization, was resuspended in 100 μL ½ strength PDB, placed on ice and gently shaken. Then, 50 μL of resuspended sample was added to each corresponding well of the bioassay plate to give a final test volume of 100 μL and […] per well. In the inoculum control wells, 50 μL of inoculum and 50 μL of ½ strength PDB were used, while the media control wells contained 100 μL of ½ strength PDB. The wells were covered with Breathe-Easy membranes (Web Scientific Ltd., Cheshire, U.K.) and placed in the dark on the benchtop.
For the dose-response assay, lyophilized cyclotide 2 was resuspended in 40 μL of ½ strength PDB solution. Then, 20 μL of the resuspended sample was pipetted into 4 different wells containing either 8 μL, 6 μL, 4 μL or 2 μL of suspension. The final volume in each well was adjusted to 100 μL with the Sclerotinia test inoculum. The plates were covered with Breathe-Easy membranes (Web Scientific Ltd., Cheshire, U.K.) and placed in the dark on the benchtop.

Caenorhabditis elegans [2] = assay: Nematocidal activity of cyclotide 2 against C. elegans (dose-response, development score); type: in vivo; parameters: key to Replicate 1 Score (nematode development) / Replicate 2 Score (nematode development): 1: no development; 2: little development; 5: medium development; 10: full development; conditions: for Replicate 1 Score (nematode development) / Replicate 2 Score (nematode development): 50 L1-stage nematodes per well
Experimental: Samples of cyclotide 2 to be used in a dose-response assay were resuspended in 180 μl distilled H2O to create a stock solution of 161.3 μM. The dose-response assay was carried out in 96 well microtiter plates with each dose prepared in replicates of two. Each assay well contained 50 L1-stage nematodes which had been grown in S-medium (100 mM NaCl, 10 mM K citrate, pH 6.0, 50 mM KHPO4, pH 6.0, 3 mM CaCl2, 3 mM MgCl2, […], […], 10 mM MnCl2, 10 mM ZnSO4, 1 mM CuSO4) and had been allowed to feed on overnight cultured E. coli strain OP50, 30 μg/mL tetracycline and 30 μg/mL chloramphenicol. The total assay volume was 100 μL. The assay was scored at days 3 and 4 (Table 3).

Caenorhabditis elegans [3] = assay: as above; type: in vivo; conditions: fractionated crude extract of Viola spp.

For “cyclotide 2: bioactive cyclotide purified from Viola spp. extract; SEQ ID NO:6 GIPCGESCVWIPCISAAIGCSCKSKVCYRN (cyclo(GIPCGESCVWIPCISAAIGCSCKSKVCYRN); not fully specified (bridges); also: three disulfide bonds (cystine knot), pairings not given here; listed as Viola sp.)”, the “Scored at 18 hrs (% mortality)” value (Panagrellus redivivus; 10.07 μM) was 60%, the “Scored at 24 hrs (% mortality)” value (Panagrellus redivivus; 10.07 μM) was 74% and the “Scored at 18 hrs (% mortality)” value (Panagrellus redivivus; 20.13 μM) was greater than 60%. The “Scored at 24 hrs (% mortality)” value (Panagrellus redivivus; 20.13 μM) was 78%, the “Scored at 18 hrs (% mortality)” value (Panagrellus redivivus; 30.20 μM) was 70% and the “Scored at 24 hrs (% mortality)” value (Panagrellus redivivus; 30.20 μM) was 80%. The “Scored at 18 hrs (% mortality)” value (Panagrellus redivivus; 40.27 μM) was 85%, the “Scored at 24 hrs (% mortality)” value (Panagrellus redivivus; 40.27 μM) was 90% and the “Scored at 18 hrs (% mortality)” value (Panagrellus redivivus; 50.34 μM) was 85%. The “Scored at 24 hrs (% mortality)” value (Panagrellus redivivus; 50.34 μM) was 95%, the “Scored at 18 hrs (% mortality)” value (Panagrellus redivivus; 60.40 μM) was 90% and the “Scored at 24 hrs (% mortality)” value (Panagrellus redivivus; 60.40 μM) was roughly 100%. For the same substance, the “Activity of HPLC peak against Panagrellus redivivus” value (Panagrellus redivivus; fractionated crude extract of Viola spp.) was “specifically active”, the “LD90 concentration (concentration at which 90% of the nematodes are killed)” value (Panagrellus redivivus; within 24 hrs observation time) was 40.27 µM and the “Cyclotide concentration at which total inhibition of fungal growth is observed” value [1] was 2.5 µM. The “Cyclotide concentration at which total inhibition of fungal growth is observed” value (Fusarium verticilloides) was 10 µM, the “Cyclotide concentration at which total inhibition of fungal growth is observed” value (Neurospora crassa) was 1.25 µM and the “Score (inhibition of hyphal growth)” value (Sclerotinia; 1.67 μM) was 1. For the same substance, the “Score (inhibition of hyphal growth)” value (Sclerotinia; 3.33 μM) was 2, the “Score (inhibition of hyphal growth)” value (Sclerotinia; 5.0 μM) was 4 and the “Score (inhibition of hyphal growth)” value (Sclerotinia; 6.67 μM) was 3. The “Replicate 1 Score (nematode development)” value (Caenorhabditis elegans [2]; 0.81 μM) was 10, the “Replicate 2 Score (nematode development)” value (Caenorhabditis elegans [2]; 0.81 μM) was 10 and the “Replicate 1 Score (nematode development)” value (Caenorhabditis elegans [2]; 1.62 μM) was 10. The “Replicate 2 Score (nematode development)” value (Caenorhabditis elegans [2]; 1.62 μM) was 10, the “Replicate 1 Score (nematode development)” value (Caenorhabditis elegans [2]; 3.24 μM) was 5 and the “Replicate 2 Score (nematode development)” value (Caenorhabditis elegans [2]; 3.24 μM) was 5. The “Replicate 1 Score (nematode development)” value (Caenorhabditis elegans [2]; 6.48 μM) was 2, the “Replicate 2 Score (nematode development)” value (Caenorhabditis elegans [2]; 6.48 μM) was 2 and the “Replicate 1 Score (nematode development)” value (Caenorhabditis elegans [2]; 16.2 μM) was 1. The “Replicate 2 Score (nematode development)” value (Caenorhabditis elegans [2]; 16.2 μM) was 1, the LD90 (Caenorhabditis elegans [2]; recorded after day three) was 6.48 µM and the “Activity of HPLC peak against Caenorhabditis elegans” value (Caenorhabditis elegans [3]) was “specifically active”.
